Reference: US11071767B2, “Dietary compositions for reducing blood glucose levels and for weight management” (MARMAR INVESTMENT SP. Z O.O., priority 2014, dated 2021)

What was measured:
male Wistar rats [1] = assay: Glucose tolerance test in rats after single plant extracts (Example 1); type: in vivo, rat
Description: An experiment was conducted on 96 male Wistar rats with mean body weight of 381.2±16.6 g, bred at […] in Olsztyn. Each study group consisted of 12 rats. The animals were kept in individual cages in a ventilated room at a constant temperature of about 22° C., controlled relative humidity of about 60% and appropriate lighting (day/night, 12/12 hours). During the experimental period, the animals were fed a standard laboratory rodent mix. Rats were deprived of food 12 hours prior to the first measurement of blood glucose levels, while constant access to water was maintained. On the day of the experiment, the rats were weighed and fasting blood glucose measurements were taken, via a scalpel incision at the tip of the tail. Next, the animals received aqueous solutions of plant extracts, Acarbose, which served as a positive control (PC) or water, which served as a negative control (NC) at pre-defined quantities via a gastric tube. All the plant extracts were provided by […] Investment in a solution form, and were administered according to the following doses: • white mulberry extract (mulberry): 120 mg per 1 kg body weight • bean extract: 100 mg per 1 kg body weight • green coffee extract (coffee): 20 mg per 1 kg body weight • bitter melon extract (melon): 150 mg per 1 kg body weight • pomelo extract: 100 mg per 1 kg body weight • acarbose preparation: 35 mg per 1 kg body weight • arabinose preparation: 25 mg per 1 kg body weight The extract solutions were prepared so as the amount of liquid administered to a sample animal weighing 350 g was 1 mL. Water was administered to the control group in the same manner/volume. […] Statistical analysis using Student's t-test was performed for proper interpretation of results. Each result obtained for a particular product was compared to the analogous result obtained in the negative control (water) group.

male Wistar rats [2] = assay: Glucose tolerance test (sucrose or starch) in rats after plant extract combinations I-III (Example 2); type: in vivo, rat
Description: Each study group consisted of 10 rats. Rats were kept in individual cages in a ventilated at a constant temperature of about 22° C., controlled relative humidity of about 60% and appropriate lighting (day/night, 12/12 hours). During the experimental period, rats were fed the standard laboratory rodent mix. Rats were deprived of food 12 hours prior to the first measurement of blood glucose levels, while constant access to water was maintained. On the day of the experiment, rats were weighed and fasting blood glucose measurements were taken, via a scalpel incision at the tip of the tail. Next, rats were administered water (negative control), acarbose (positive control) or aqueous solutions of pre-defined combinations of plant extracts, as follows: • acarbose preparation: 35 mg per 1 kg body weight • combination I: white mulberry extract (120 mg per 1 kg body weight)+ bean extract (100 mg per 1 kg body weight)+ green coffee extract (20 mg per 1 kg body weight). • combination II: white mulberry extract (120 mg per 1 kg body weight)+ green coffee extract (20 mg per 1 kg body weight)+ arabinose preparation (25 mg per 1 kg body weight). • combination III: white mulberry extract (120 mg per 1 kg body weight)+ bean extract (100 mg per 1 kg body weight)+ green coffee extract (20 mg per 1 kg body weight)+ arabinose preparation (25 mg per 1 kg body weight). The solutions of the extracts were prepared so that the volume of liquid administered to an animal weighing 350 g was 1 mL. Water was administered to the control group in a similar manner. […] Statistical analysis using Student's t-test was performed for proper interpretation of results. Each result obtained for a particular product was compared to the analogous result obtained in the negative control (water) group. Results are presented in Table 2, below and in FIGS. 5A-5B.

[3] = GLUCOSE load (50% glucose solution), 0 min (fasting)
[4] = STARCH load (40% starch solution), 0 min (fasting)
[5] = SUCROSE load (50% sucrose solution), 0 min (fasting)

SMILES	blood glucose level (male Wistar rats [1]; [3]) [mg/dL]	blood glucose level (male Wistar rats [1]; GLUCOSE load, 15 min) [mg/dL]	blood glucose level (male Wistar rats [1]; GLUCOSE load, 30 min) [mg/dL]	blood glucose level (male Wistar rats [1]; GLUCOSE load, 60 min) [mg/dL]	blood glucose level (male Wistar rats [1]; GLUCOSE load, 90 min) [mg/dL]	blood glucose level (male Wistar rats [1]; GLUCOSE load, 120 min) [mg/dL]	blood glucose level (male Wistar rats [1]; GLUCOSE load, 180 min) [mg/dL]	blood glucose level (male Wistar rats [1]; [4]) [mg/dL]	blood glucose level (male Wistar rats [1]; STARCH load, 15 min) [mg/dL]	blood glucose level (male Wistar rats [1]; STARCH load, 30 min) [mg/dL]	blood glucose level (male Wistar rats [1]; STARCH load, 60 min) [mg/dL]	blood glucose level (male Wistar rats [1]; STARCH load, 90 min) [mg/dL]	blood glucose level (male Wistar rats [1]; STARCH load, 120 min) [mg/dL]	blood glucose level (male Wistar rats [1]; STARCH load, 180 min) [mg/dL]	blood glucose level (male Wistar rats [1]; [5]) [mg/dL]	blood glucose level (male Wistar rats [1]; SUCROSE load, 15 min) [mg/dL]	blood glucose level (male Wistar rats [1]; SUCROSE load, 30 min) [mg/dL]	blood glucose level (male Wistar rats [1]; SUCROSE load, 60 min) [mg/dL]	blood glucose level (male Wistar rats [1]; SUCROSE load, 90 min) [mg/dL]	blood glucose level (male Wistar rats [1]; SUCROSE load, 120 min) [mg/dL]	other results
C[C@H]1O[C@H](O[C@H]2[C@H](O)[C@@H](O)[C@@H](O[C@H]3[C@H](O)[C@@H](O)C(O)O[C@@H]3CO)O[C@@H]2CO)[C@H](O)[C@@H](O)[C@@H]1N[C@H]1C=C(CO)[C@@H](O)[C@H](O)[C@H]1O (some centres unmarked) [Acarbose]	95.6 ± 6.37	168.9 ± 16.33	163.3 ± 22.35	158.0 ± 12.91	157.6 ± 10.20	137.7 ± 10.07	106.8 ± 8.59	93.5 ± 6.36	120.0 ± 14.97	114.9 ± 14.48	100.1 ± 7.28	95.5 ± 6.17	94.6 ± 6.02	90.0 ± 7.03	94.2 ± 7.43	120.0 ± 15.80	114.9 ± 14.48	100.1 ± 7.28	95.5 ± 6.17	94.6 ± 6.02	blood glucose level (male Wistar rats [1]; SUCROSE load, 180 min): 90.0 ± 6.21 mg/dL; blood glucose level (male Wistar rats [2]; STARCH 40% solution 2 g/kg, 0 min (fasting)): 89.7 ± 6.09 mg/dL; blood glucose level (male Wistar rats [2]; STARCH, 15 min): 105.5 ± 9.74 mg/dL; blood glucose level (male Wistar rats [2]; STARCH, 30 min): 104.6 ± 4.24 mg/dL; blood glucose level (male Wistar rats [2]; STARCH, 60 min): 97.3 ± 7.18 mg/dL; blood glucose level (male Wistar rats [2]; STARCH, 90 min): 98.3 ± 6.09 mg/dL; blood glucose level (male Wistar rats [2]; STARCH, 120 min): 94.8 ± 6.01 mg/dL; blood glucose level (male Wistar rats [2]; STARCH, 180 min): 88.7 ± 4.87 mg/dL; blood glucose level (male Wistar rats [2]; SUCROSE 50% solution 2 g/kg, 0 min (fasting)): 84.7 ± 4.81 mg/dL; blood glucose level (male Wistar rats [2]; SUCROSE, 15 min): 112.2 ± 8.58 mg/dL; blood glucose level (male Wistar rats [2]; SUCROSE, 30 min): 121.1 ± 8.93 mg/dL; blood glucose level (male Wistar rats [2]; SUCROSE, 60 min): 116.0 ± 6.87 mg/dL; blood glucose level (male Wistar rats [2]; SUCROSE, 90 min): 110.2 ± 6.51 mg/dL; blood glucose level (male Wistar rats [2]; SUCROSE, 120 min): 109.0 ± 4.66 mg/dL; blood glucose level (male Wistar rats [2]; SUCROSE, 180 min): 101.1 ± 5.34 mg/dL
O=C[C@H](O)[C@@H](O)[C@@H](O)CO [Arabinose, L-Arabinose]	96.0 ± 3.62	170.9 ± 19.55	157.1 ± 20.27	148.2 ± 18.33	152.2 ± 11.19	137.0 ± 8.96	111.6 ± 14.42	90.9 ± 5.92	116.3 ± 8.88	123.5 ± 12.49	110.9 ± 7.28	111.5 ± 4.19	106.3 ± 6.54	100.1 ± 6.33	94.7 ± 7.31	135.4 ± 14.68	132.9 ± 15.65	132.9 ± 9.06	131.7 ± 7.55	125.4 ± 6.52	blood glucose level (male Wistar rats [1]; SUCROSE load, 180 min): 123.0 ± 7.25 mg/dL
